System: breakthrough HE episode in subjects with hepatic encephalopathy (HE)
Assay: Time to first breakthrough (overt) HE episode, first study, rifaximin vs placebo
Format: in vivo, human
Conditions: for Cumulative number of events / Number of events / Probability of no breakthrough overt HE (Kaplan-Meier event-free estimate): ITT, first breakthrough overt HE
Source text: An increase in the Conn score of greater than or equal to grade 2 was considered as a breakthrough HE episode.
An efficacy endpoint was the time to first breakthrough overt HE episode. A breakthrough overt HE episode was defined as an increase of Conn score to Grade ≥2 (e.g., 0) or 1 to ≥2) or an increase in Conn and asterixis score of 1 grade each for those subjects who entered the study with a Conn score of 0. Time to breakthrough overt HE episode was the duration from time of first dose of study drug to the first breakthrough overt HE episode. […] Subjects who terminated early for reasons other than breakthrough overt HE were contacted at 6 months from randomization to determine if subjects had experienced a breakthrough overt HE episode or other outcome (e.g., mortality status); and, if the subject had no breakthrough overt HE event prior to contact, he/she was censored at the time of contact. […] Subjects in the study had ≥2 episodes of overt HE equivalent to Conn score ≥2 within 6 months prior to screening (i.e., subjects had documented recurrent, overt HE). At the baseline assessment, subjects were in remission with a Conn score of 0 or 1. A breakthrough overt HE episode, as defined above, was a marked deterioration in neurological function.
Presented herein are the results of the first study and second study. […] The primary efficacy endpoint was the time to breakthrough overt HE. Breakthrough overt HE was defined as an increase of Conn score to Grade ≥2 (e.g., 0 or 1 to ≥2) or an increase in Conn and asterixis score of 1 grade each for those subjects who entered the study with a Conn score of 0. Subjects discontinued from the study at the time of breakthrough overt HE episode. After participation in the first study, subjects had the option to enroll in the open-label, treatment-extension study (the second study).
FIG. 1 illustrates Kaplan-Meier estimates of time to first breakthrough overt HE episode by treatment group in the ITT population. Table 18 presents Kaplan-Meier estimates of the proportions of subjects who experienced breakthrough overt HE over the course of the Treatment Period and results of statistical analyses. […] Subjects who terminated early for reasons other than breakthrough overt HE (eg, liver transplant, AE, subject request) were contacted at 6 months from date of randomization to determine if subjects had experienced a breakthrough overt HE episode or other outcome (e.g., mortality status). Subjects without breakthrough overt HE were censored at the time of contact or death, whichever was earlier.

[1] = breakthrough HE episode by baseline Conn score level, 550 mg BID, N = 93, Days >= 168
[2] = breakthrough HE episode by baseline Conn score level; 550 mg BID; N = 93; Days [0-28)
[3] = breakthrough HE episode by baseline Conn score level; 550 mg BID; N = 93; Days [28-56)
[4] = breakthrough HE episode by baseline Conn score level; 550 mg BID; N = 93; Days [56-84)
[5] = breakthrough HE episode by baseline Conn score level; 550 mg BID; N = 93; Days [84-140)
[6] = breakthrough HE episode by baseline Conn score level; 550 mg BID; N = 93; Days [140-168)
[7] = breakthrough HE episode by baseline MELD score level, 550 mg BID, N = 11, Days >=168
[8] = breakthrough HE episode by baseline MELD score level; 550 mg BID; N = 11; Days [0-28)
[9] = breakthrough HE episode by baseline MELD score level; 550 mg BID; N = 11; Days [28-56)
[10] = breakthrough HE episode by baseline MELD score level; 550 mg BID; N = 11; Days [56-84)
[11] = breakthrough HE episode by baseline MELD score level; 550 mg BID; N = 11; Days [84-140)
[12] = breakthrough HE episode by baseline MELD score level; 550 mg BID; N = 11; Days [140-168)
[13] = breakthrough HE episode by baseline MELD score level, 550 mg BID, N = 34, Days >=168
[14] = breakthrough HE episode by baseline MELD score level; 550 mg BID; N = 34; Days [0-28)
[15] = breakthrough HE episode by baseline MELD score level; 550 mg BID; N = 34; Days [28-56)
[16] = breakthrough HE episode by baseline MELD score level; 550 mg BID; N = 34; Days [56-84)
[17] = breakthrough HE episode by baseline MELD score level; 550 mg BID; N = 34; Days [84-140)
[18] = breakthrough HE episode by baseline MELD score level; 550 mg BID; N = 34; Days [140-168)
[19] = breakthrough HE episode by baseline MELD score level, 550 mg BID, N = 85, Days >=168
[20] = breakthrough HE episode by baseline MELD score level; 550 mg BID; N = 85; Days [0-28)
[21] = breakthrough HE episode by baseline MELD score level; 550 mg BID; N = 85; Days [28-56)
[22] = breakthrough HE episode by baseline MELD score level; 550 mg BID; N = 85; Days [56-84)
[23] = breakthrough HE episode by baseline MELD score level; 550 mg BID; N = 85; Days [84-140)
[24] = breakthrough HE episode by baseline MELD score level; 550 mg BID; N = 85; Days [140-168)
[25] = breakthrough HE episode by prior lactulose use, 550 mg BID, N = 123, Days >=168
[26] = breakthrough HE episode by prior lactulose use; 550 mg BID; N = 123; Days [0-28)
[27] = breakthrough HE episode by prior lactulose use; 550 mg BID; N = 123; Days [28-56)
[28] = breakthrough HE episode by prior lactulose use; 550 mg BID; N = 123; Days [56-84)
[29] = breakthrough HE episode by prior lactulose use; 550 mg BID; N = 123; Days [84-140)
[30] = breakthrough HE episode by prior lactulose use; 550 mg BID; N = 123; Days [140-168)
[31] = breakthrough HE episode by prior lactulose use, 550 mg BID, N = 127, Days >=168
[32] = breakthrough HE episode by prior lactulose use; 550 mg BID; N = 127; Days [0-28)
[33] = breakthrough HE episode by prior lactulose use, 550 mg BID, N = 127, Days [28-56]
[34] = breakthrough HE episode by prior lactulose use, 550 mg BID, N = 127, Days [56-84]
[35] = breakthrough HE episode by prior lactulose use; 550 mg BID; N = 127; Days [84-140)
[36] = breakthrough HE episode by prior lactulose use; 550 mg BID; N = 127; Days [140-168)
[37] = breakthrough HE episode, 550 mg BID, N = 140, Days >=168
[38] = breakthrough HE episode; 550 mg BID; N = 140; Days [0-28)
[39] = breakthrough HE episode; 550 mg BID; N = 140; Days [28-56)
[40] = breakthrough HE episode; 550 mg BID; N = 140; Days [56-84)
[41] = breakthrough HE episode; 550 mg BID; N = 140; Days [84-140)
[42] = breakthrough HE episode; 550 mg BID; N = 140; Days [140-168)
[43] = first study, N = 140, treatment interval 0 to <28 days
[44] = first study, N = 140, treatment interval 28 to 56 days
[45] = first study, N = 140, treatment interval 56 to <84 days
[46] = first study, N = 140, treatment interval 84 to <149 days
[47] = first study, N = 140, treatment interval 140 to <168 days
[48] = first study, N = 140, treatment interval ≥168 days

SMILES: CO[C@H]1/C=C/O[C@@]2(C)Oc3c(C)c(O)c4c(O)c(c5c(nc6cc(C)ccn65)c4c3C2=O)NC(=O)/C(C)=C\C=C\[C@H](C)[C@H](O)[C@@H](C)[C@@H](O)[C@@H](C)[C@H](OC(C)=O)[C@@H]1C [Rifaximin]
- Cumulative Occurrences of Events [1]: 19
- Occurrences of Events [1]: 0
- Survival [1]: 0.7924
- Occurrences of Events [2]: 11
- Survival [2]: 1.0000
- Occurrences of Events [3]: 3
- Survival [3]: 0.8817
- Occurrences of Events [4]: 1
- Survival [4]: 0.8491
- Occurrences of Events [5]: 3
- Survival [5]: 0.8380
- Occurrences of Events [6]: 1
- Survival [6]: 0.8042
- Cumulative Occurrences of Events [7]: 4
- Occurrences of Events [7]: 0
- Survival [7]: 0.6364
- Cumulative Occurrences of Events [8]: 1
- Occurrences of Events [8]: 1
- Survival [8]: 1.0000
- Cumulative Occurrences of Events [9]: 1
- Occurrences of Events [9]: 0
- Survival [9]: 0.9091
- Cumulative Occurrences of Events [10]: 4
- Occurrences of Events [10]: 3
- Survival [10]: 0.9091
- Cumulative Occurrences of Events [11]: 4
- Occurrences of Events [11]: 0
- Survival [11]: 0.6364
- Cumulative Occurrences of Events [12]: 4
- Occurrences of Events [12]: 0
- Survival [12]: 0.6364
- Cumulative Occurrences of Events [13]: 2
- Occurrences of Events [13]: 0
- Survival [13]: 0.9398
- Cumulative Occurrences of Events [14]: 1
- Occurrences of Events [14]: 1
- Survival [14]: 1.0000
- Cumulative Occurrences of Events [15]: 1
- Occurrences of Events [15]: 0
- Survival [15]: 0.9706
- Cumulative Occurrences of Events [16]: 1
- Occurrences of Events [16]: 0
- Survival [16]: 0.9706
- Cumulative Occurrences of Events [17]: 2
- Occurrences of Events [17]: 1
- Survival [17]: 0.9706
- Cumulative Occurrences of Events [18]: 2
- Occurrences of Events [18]: 0
- Survival [18]: 0.9398
- Cumulative Occurrences of Events [19]: 20
- Occurrences of Events [19]: 0
- Survival [19]: 0.7580
- Cumulative Occurrences of Events [20]: 8
- Occurrences of Events [20]: 8
- Survival [20]: 1.0000
- Cumulative Occurrences of Events [21]: 10
- Occurrences of Events [21]: 2
- Survival [21]: 0.9059
- Cumulative Occurrences of Events [22]: 13
- Occurrences of Events [22]: 3
- Survival [22]: 0.8822
- Cumulative Occurrences of Events [23]: 19
- Occurrences of Events [23]: 6
- Survival [23]: 0.8459
- Cumulative Occurrences of Events [24]: 20
- Occurrences of Events [24]: 1
- Survival [24]: 0.7713
- Cumulative Occurrences of Events [25]: 29
- Occurrences of Events [25]: 0
- Survival [25]: 0.7586
- Cumulative Occurrences of Events [26]: 12
- Occurrences of Events [26]: 12
- Survival [26]: 1.0000
- Cumulative Occurrences of Events [27]: 16
- Occurrences of Events [27]: 4
- Survival [27]: 0.9024
- Cumulative Occurrences of Events [28]: 21
- Occurrences of Events [28]: 5
- Survival [28]: 0.8696
- Cumulative Occurrences of Events [29]: 28
- Occurrences of Events [29]: 7
- Survival [29]: 0.8278
- Cumulative Occurrences of Events [30]: 29
- Occurrences of Events [30]: 1
- Survival [30]: 0.7678
- Cumulative Occurrences of Events [31]: 29
- Occurrences of Events [31]: 0
- Survival [31]: 0.7666
- Cumulative Occurrences of Events [32]: 12
- Occurrences of Events [32]: 12
- Survival [32]: 1.0000
- Cumulative Occurrences of Events [33]: 16
- Occurrences of Events [33]: 4
- Survival [33]: 0.9055
- Cumulative Occurrences of Events [34]: 22
- Occurrences of Events [34]: 6
- Survival [34]: 0.8737
- Cumulative Occurrences of Events [35]: 28
- Occurrences of Events [35]: 6
- Survival [35]: 0.8252
- Cumulative Occurrences of Events [36]: 25
- Occurrences of Events [36]: 1
- Survival [36]: 0.7754
- Cumulative Occurrences of Events [37]: 31
- Occurrences of Events [37]: 0
- Survival [37]: 0.7740
- Cumulative Occurrences of Events [38]: 13
- Occurrences of Events [38]: 13
- Survival [38]: 1.0000
- Cumulative Occurrences of Events [39]: 17
- Occurrences of Events [39]: 4
- Survival [39]: 0.9071
- Cumulative Occurrences of Events [40]: 23
- Occurrences of Events [40]: 6
- Survival [40]: 0.8783
- Cumulative Occurrences of Events [41]: 30
- Occurrences of Events [41]: 7
- Survival [41]: 0.8344
- Cumulative Occurrences of Events [42]: 31
- Occurrences of Events [42]: 1
- Survival [42]: 0.7820
- reduction, compared with placebo, in the risk of a breakthrough overt HE episode after adjusting for prognostic factors (first study): 60%
- Cumulative number of events [43]: 13
- Number of events [43]: 13
- Probability of no breakthrough overt HE (Kaplan-Meier event-free estimate) [43]: 1.0000
- Cumulative number of events [44]: 17
- Number of events [44]: 4
- Probability of no breakthrough overt HE (Kaplan-Meier event-free estimate) [44]: 0.9071
- Cumulative number of events [45]: 23
- Number of events [45]: 6
- Probability of no breakthrough overt HE (Kaplan-Meier event-free estimate) [45]: 0.8783
- Cumulative number of events [46]: 30
- Number of events [46]: 7
- Probability of no breakthrough overt HE (Kaplan-Meier event-free estimate) [46]: 0.8344
- Cumulative number of events [47]: 31
- Number of events [47]: 1
- Probability of no breakthrough overt HE (Kaplan-Meier event-free estimate) [47]: 0.7820
- Cumulative number of events [48]: 31
- Number of events [48]: 0
- Probability of no breakthrough overt HE (Kaplan-Meier event-free estimate) [48]: 0.7740
- proportion of subjects with breakthrough overt HE (first study, rifaximin group): 22%
- subjects who experienced breakthrough overt HE episodes (of 140) (first study, rifaximin group, 6-month period, up to Day 170): 31
- time to breakthrough HE event vs placebo (FIG. 2, Kaplan Meier) (in vivo): increased time to breakthrough HE events

Reference: US12697326B2, “Methods of treating hepatic encephalopathy” (SALIX PHARMACEUTICALS, INC., priority 2008, dated 2026)
